Patent US6849602B1 (The Regents of the University of California, priority 1996, dated 2005)
“Also recorded” adds a separate entry of the source. No end group written: not given here.

Tests used:
neuroblastoma cells [1] = assay: Neurotrophic activity (neurite outgrowth, choline acetyltransferase, cell death); assay type: cell-based
Chung model rats = assay: Tactile allodynia (von Frey, 50% paw withdrawal threshold) after bolus intrathecal injection in Chung model rats; assay type: in vivo, rat; settings: for activity in alleviating neuropathic pain as assayed using Chung rats: summary statement
Experimental: Each of the three peptides were obtained in pure form by chemical synthesis, dissolved in sterile PBS and buffered to a neutral pH.
The surgical procedure previously described by Kim and Chung, supra (1992) was performed on male Sprague-Dawley rats weighing 120 to 150 grams to induce an allodynic state. Briefly, the rats were anesthetized with halothane; subsequently, the left L-5 and L-6 spinal nerves were isolated adjacent to the vertebral column and ligated with 6.0 silk suture distal to the dorsal root ganglion.
After a ten to fourteen day post operative recovery period, a spinal catheter was introduced. Five days following the second surgery, intrathecal drug administration was accomplished using a gear driven micro-injection syringe connected to a spinal catheter inserted through the foramen magnum. Prior to testing, the rats were placed in clear plastic wire meshed cages and allowed to acclimate.
To assess the 50% mechanical threshold for paw withdrawal, a von Frey hair was applied to the hind foot avoiding the foot pad. Each of the von Frey hairs, which are calibrated to bend at increasing log forces, were pressed perpendicularly to the foot with sufficient force to cause slight bending for a duration of approximately six to eight seconds. A positive response was noted if the foot was sharply withdrawn. Six data points were collected for each point with the maximum and minimum stimulus noted for each time point. The resulting pattern of the responses was tabulated, and the 50% response threshold was computed. The graph gives the response to the indicated dosage of peptide given as a single intrathecal bolus injection. The X-axis indicates the time after the injection at which point the hypersensitivity to pressure on the foot pad was measured.

[2] = test system: normal male Sprague Dawley rats; assay: Hot plate response latency in normal rats after intrathecal injection; assay type: in vivo, rat; settings: hot plate 52.5° C., up to 180 minutes after intrathecal injection
Experimental: Briefly, the period of time before the rat withdraws the affected foot from a source of heat is defined as the hot plate latency and is a measure of tolerance to pain caused by a heat stimulus.
An intrathecal catheter was placed into normal male Sprague Dawley rats. […] Rats were examined on the hot plate (52.5° C.); hot plate response latencies were measured prior to injection and at various time points up to 180 minutes after the injection.

taxol-treated mice = assay: Loss of thermal sensation (Hargreaves) in taxol-treated mice; assay type: in vivo, mouse
Experimental: Mice were administered taxol in order to induce sensory neuropathy.
The loss of thermal sensation was measured using a Hargreaves sensory testing apparatus as an indicator of sensory neuropathy.

neuroblastoma cells [3] = settings: O'Brien et al.; cited from earlier work

Sequence: LIDNNKTEKEIL [SEQ ID NO:3]
- neurotrophic activity (neuroblastoma cells [1]): active as a neurotrophic factor

Sequence: TKSIDNNKTEKEIL [SEQ ID NO:10, substitution of the conserved leucine residue]
- neurotrophic activity (neuroblastoma cells [1]): lacks neurotrophic activity

Sequence: TKLIDNDKTEKEIL [SEQ ID NO:9, substitution of the second conserved asparagine residue]
- neurotrophic activity (neuroblastoma cells [1]): lacks neurotrophic activity

Sequence: CEFLVKEVTKLIDNNKTEKEIL [SEQ ID NO:1]
- duration of effect following administration (Chung model rats; FIG. 1): 3 h
- latest time point with significantly reduced allodynia (Chung model rats; highest dose, intrathecal): ≥ 180 min
- time after injection to significant effect (Chung model rats; intrathecal bolus): ≤ 15 min
- time of maximum (peak) effect post-injection (Chung model rats; intrathecal bolus): 120 min
- tactile allodynia (force threshold) (Chung model rats; intrathecal injection of 0.007 μg): no significant reduction in allodynia
- tactile allodynia (force threshold) (Chung model rats; intrathecal injection of 0.7 or 0.07 μg): suppressed allodynia in a dose-dependent fashion
- activity in alleviating neuropathic pain as assayed using Chung rats (Chung model rats): reduces the painful allodynia; also recorded: alleviate neuropathic pain
- hot plate response latency [2]: No significant elevation of the hot plate response latency
- loss of thermal sensation (taxol-treated mice; 100 μg/kg): the loss of thermal sensation was inhibited
- loss of thermal sensation (taxol-treated mice; similarly assayed, dose not stated): effective in inhibiting less of thermal sensation
- neurotrophic activity (neuroblastoma cells [1]): have neurotrophic activity
- cell death in neuroblastoma cells (neuroblastoma cells [3]): prevents cell death in neuroblastoma cells
- choline acetyltransferase activity (neuroblastoma cells [3]): stimulates
- neurite outgrowth (neuroblastoma cells [3]): stimulates neurite outgrowth

Sequence: CEFLVKEVTKLIDDNKTEKEIL [SEQ ID NO:8]
- allodynic response (Chung model rats; injection of 17.5 μg): No change in the allodynic response
- activity in alleviating neuropathic pain as assayed using Chung rats (Chung model rats): inactive in alleviating neuropathic pain
- activity in alleviating neuropathic pain as assayed using Chung rats (Chung model rats; listed as SEQ ID NO8): lacks activity in alleviating neuropathic pain
- neurotrophic activity (neuroblastoma cells [1]): lacks neurotrophic activity
